Laboratory results taken from patent US6387945B2, “Lipoic acid analogs” (The Regents of the University of California, priority 2000, dated 2002).

Columns and labels:
Jurkat T cells = experiment: Cells' ability to retain the reduced forms (DTNB efflux assay), Jurkat T cells; format: cell-based; settings: 0.1 mM LA or LA-PLUS, FIG. 6A
Experimental: (§1) Jurkat T cells or neuronal HT4 cells were incubated with LA (0.1 mM) or LA-PLUS (0.1 mM). The medium of the cells was replaced by phosphate buffer saline that contained 250 uM of 5,5′-dithiobis-(2-nitrobenzoic acid) (DTNB). The free thiols in the medium were trapped by the DTNB and absorption was measured at 420 nm at different time intervals.
(§2) The efflux of DHLA and DHLA-PLUS from cells was measured in the medium of cells in culture. The medium was composed of PBS and DTNB. […] An illustration of how LA-PLUS crosses biological barriers such as membranes (also showing retention of DHLA-PLUS inside the cell) is given in FIG. 7.

HT4 neuronal cells = experiment: Cells' ability to retain the reduced forms (DTNB efflux assay), HT4 neuronal cells; format: cell-based, mouse; settings: 0.1 mM LA or LA-PLUS, FIG. 6B
Experimental: as §1, §2

HT4 cells [1] = experiment: Cell viability by LDH leakage after glutamate treatment; format: cell-based, mouse; settings: 10 mM glutamate, FIG. 2
Experimental: (§3) HT-4 cells (mouse hippocampal cell line) were purchased from American Type Culture Collection (ATCC, Bethesda, Md.). All experiments reported here were carried out with 10 mM glutamate.
(§4) HT4 cells were grown in DMEM supplemented with 10% serum and 100 U/ml penicillin-streptomycin at 37° C. in a humidified atmosphere containing 95% air/5% CO2.
(§5) All experiments were performed under the following protocol. Cells were allowed to grow to confluency, were trypsinized and subcultured in culture dishes at a concentration of 375,000 cells per millititer. The cells were continually cultured at 37° C. and were allowed to grow for 24 h, and then were exposed to glutamate treatment.
Cell viability was assayed using lactate dehydrogenase (LDH) leakage. After completion of the experiments, culture medium was removed from plates and centrifuged (500 g×5 min). The cells that detached from the monolayer following glutamate treatment were separated by centrifugation of the growth medium. […] LDH activity was measured from the samples spectophotometrically within two days of storage. Cell viability was determined using the following formula: viability=attached cell LDH activity/total LDH activity (medium+detached cell LDH activity+attached cell LDH activity).

ICAM-1 = experiment: PMA-induced ICAM-1 expression in ECV endothelial cells (flow cytometry); format: cell-based, human; settings: same concentration; 20 nM PMA, 24 h; FIG. 3
Experimental: EV304 (ECV), a spontaneously transformed immortal human endothelial cell line established from the vein of an apparently normal human umbilical cord, were obtained from ATCC (Bethesda, Md.). ECV cells were grown in medium 199 supplemented with 10% fetal calf serum, 100 U/ml penicillin and 100 μg/ml streptomycin. Cells were maintained in a standard culture incubator with humidified air containing 5% CO2 at 37° C. ECV monolayers were pretreated with LA or LA-PLUS for the time period indicated in the respective figure legend. Following the pretreatment, cells were activated using 20 nM PMA for 24 h. […] Appropriate isotypic controls were used for background fluorescence in the ICAM-1 assay. The fluorescence and light scattering properties (forward scatter, FS; side scatter, SS) of the cells were determined by using an EPICS-Elite (Coulter, Miami, Fla.) flow cytometer. Cells with FITC-conjugated antibodies were excited using a 488 nm argon ion laser and emission of FTIC was recorded at 525 nm. […] A logarithmic scale was used to measure both background and endothelial cell fluorescence. Background fluorescence was then subtracted from endothelial cell fluorescence, allowing linear comparisons of ICAM-1 expression between various samples.

HT4 cells [2] = experiment: Flow cytometric assay of fragmented DNA (glutamate-induced apoptosis); format: cell-based, mouse; settings: 10 mM glutamate, 24 h, FIG. 1
Experimental: as §3, §4, §5
HT4 cells were exposed to 10 mM glutamate for 24 h with and without antioxidants. […] The permeablized cells were kept in the dark for 6 h at 4° C. and their DNA integrity was analyzed using a flow cytometer (XL, Coulter, FL) with argon-ion laser (excitation 488 nm) and the 575 nm emission was recorded in fluorescence channel 1 (FL1). […]
The pathway of cell death was explored by staining the cells for 6 h following the glutamate treatment with a DNA-binding fluorescent dye, propidum iodide (PI) in cells permeabilised with a low concentration of detergent (Triton X-100 0.1% w/v). […] The cells were analyzed by flow cytometry.

L6 myoblasts = experiment: Glucose uptake by L6 rat muscle derived cells; format: cell-based; settings: 1 h pretreatment; FIG. 4
Experimental: L6 cells were obtained from American Type Culture Collection (MD). Dulbecco's Phosphate Buffered Saline (DPBS) and Dulbecco's Modified Eagle Medium (DMEM) supplemented with high glucose, L-glutamine, pyridoxine hydrochloride and 110 mg/l sodium pyruvate were obtained from GIBCO BRL (Life Technologies NY). Fetal calf serum (FCS) and other reagents for the culture medium were obtained from the cell culture facility of the University of California-San Francisco. Undifferentiated mononucleated cells (myoblasts) were used in this study. For experiments, cells were seeded at a concentration of 0.2×10^6 cells per well in 6-well flat bottom tissue culture treated polystyrene plates (FALCON, Becton Dickinson Labware, NJ). Cultures were grown in DMEM supplemented with 10% FCS, 5 mM glutamine, 0.3% D-glucose, 50 U/ml of penicillin, and […] of streptomycin, in humidified air containing 5% CO2 at 37° C. Cell viability was greater than 97% as estimated by trypan blue exclusion or propidium iodide staining. The cells were split once every third day. All experiments were carried out on cells (6th to 12th passage) in the third day of the last passage. Cells seeded in 6-well plates were washed thrice with 1 ml transport suffer (140 mM NaCl, 5 mM KCl, 2.5 mM MgCl2, 1 mM CaCl2 in 20 mN tris-HEPES, pH 7.4) at room temperature. […] Radioactivity in each sample was read using a scintillation counter.

## O=C(O)CCCC[C@@H](S)CCS (racemic) [DHLA, dihydrolipoate]
Jurkat T cells
  efflux of reduced form from cells / retention inside cells: effluxed from the cell faster than DHLA-PLUS
HT4 neuronal cells
  efflux of reduced form from cells / retention inside cells: effluxed from the cell faster than DHLA-PLUS

## O=C(O)CCCCC1CCSS1 (centres unmarked) [LA, 1,2-dithiolane-3-pentanoic acid, reference compound]
HT4 cells [1]; 100 μM compound
  protection of HT4 cells against glutamate cytotoxicity (viability): did not provide total protection

## CN(C)CCNC(=O)CCCCC1CCSS1.Cl (centres unmarked) [LA-PLUS, N,N-Dimethyl-N-2-Amidoethyl Lipoate (HCl)]
ICAM-1
  down-regulation of PMA induced ICAM-1 expression compared to LA: much more effectively down-regulated
HT4 cells [2]; 50 μM compound
  glutamate-induced apoptotic process (cell shrinkage, DNA fragmentation): completely blocked
HT4 cells [2]
  anti-apoptotic effect compared to LA: much more pronounced compared to the effect of LA
L6 myoblasts
  enhancement of glucose uptake compared to LA: clearly more effective than LA
HT4 cells [1]
  efficiency in protecting HT4 cells compared to lipoic acid: more efficient in protecting the HT4 cells than lipoic acid
